Measured values from patent US20130315843A1, “COMPOSITION FOR REDUCTION OF TRPA1 AND TRPV1 SENSATIONS” (priority 2012, published 2013).
Read-outs that look alike come from different tables or passages of the source.

Assays:
human TRPA1 [1] = target: T1, human TRPA1 (Homo sapiens, UniProt O75762); assay: FLIPR Ca2+ assay, reduction of hydrogen peroxide activation of TRPA1; format: cell-based; parameters: expressed in transfected cells; conditions: for inhibition at 100 µM: read-out: % Reduction of Hydrogen Peroxide TRPA1 Activation
T1 sequence (O75762 whole entry): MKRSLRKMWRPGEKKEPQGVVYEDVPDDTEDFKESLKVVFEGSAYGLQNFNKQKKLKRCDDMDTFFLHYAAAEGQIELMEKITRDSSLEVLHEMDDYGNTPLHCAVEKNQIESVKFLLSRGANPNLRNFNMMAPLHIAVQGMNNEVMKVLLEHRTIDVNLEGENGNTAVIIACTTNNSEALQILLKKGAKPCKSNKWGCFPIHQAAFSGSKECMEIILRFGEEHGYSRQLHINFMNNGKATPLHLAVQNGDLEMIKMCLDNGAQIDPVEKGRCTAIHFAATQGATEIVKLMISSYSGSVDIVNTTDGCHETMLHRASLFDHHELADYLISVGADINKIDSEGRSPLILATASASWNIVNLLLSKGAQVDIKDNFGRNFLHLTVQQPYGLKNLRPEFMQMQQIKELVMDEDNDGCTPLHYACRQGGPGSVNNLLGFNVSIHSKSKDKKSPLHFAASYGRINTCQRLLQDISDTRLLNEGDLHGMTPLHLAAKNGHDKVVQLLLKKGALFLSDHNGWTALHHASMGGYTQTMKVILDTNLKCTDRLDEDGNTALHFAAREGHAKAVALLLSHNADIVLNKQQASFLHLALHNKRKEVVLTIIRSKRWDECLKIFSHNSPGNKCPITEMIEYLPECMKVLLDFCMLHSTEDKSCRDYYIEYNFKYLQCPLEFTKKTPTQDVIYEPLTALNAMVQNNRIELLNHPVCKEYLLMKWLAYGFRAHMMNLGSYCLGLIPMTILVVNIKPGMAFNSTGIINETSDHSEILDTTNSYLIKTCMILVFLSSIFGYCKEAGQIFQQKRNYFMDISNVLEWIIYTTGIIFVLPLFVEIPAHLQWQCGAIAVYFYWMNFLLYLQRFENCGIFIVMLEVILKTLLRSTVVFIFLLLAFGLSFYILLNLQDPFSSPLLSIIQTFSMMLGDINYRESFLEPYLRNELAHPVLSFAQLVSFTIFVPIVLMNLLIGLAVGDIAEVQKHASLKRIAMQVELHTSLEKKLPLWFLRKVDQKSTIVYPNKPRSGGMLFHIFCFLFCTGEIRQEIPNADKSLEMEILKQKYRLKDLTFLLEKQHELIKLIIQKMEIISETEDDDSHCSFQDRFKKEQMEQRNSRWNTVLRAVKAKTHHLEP
Description: After centrifugation, a pellet of cells was formed in the bottom of the tube separating them from the supernatant solution.
(§1) The pelleted cells were re-suspended in 10 ml assay buffer and 90 μl aliquots (˜50,000 cells) per well delivered to a 96-well assay plate containing 10 μl of test compounds ([…]) or buffer control and incubated at room temperature for 30 minutes.

human TRPA1 [2] = target: T1, human TRPA1; assay: FLIPR Ca2+ assay, block of AITC activation of TRPA1; format: cell-based; parameters: expressed in transfected cells
Description: Intracellular Ca^++ levels were measured using cell based assays as described for EXAMPLES 1, 2, and 3.

human TRPA1 [3] = target: T1, human TRPA1; assay: FLIPR Ca2+ assay, reduction of L-Menthol activation of TRPA1
human TRPV1 [4] = target: T2, human TRPV1 (Homo sapiens, UniProt Q8NER1); assay: FLIPR Ca2+ assay, reduction of L-Menthol activation of TRPV1; conditions: for inhibition at 100 µM: read-out: % Reduction of L-Menthol TRPV1 Activation
T2 sequence (Q8NER1 whole entry): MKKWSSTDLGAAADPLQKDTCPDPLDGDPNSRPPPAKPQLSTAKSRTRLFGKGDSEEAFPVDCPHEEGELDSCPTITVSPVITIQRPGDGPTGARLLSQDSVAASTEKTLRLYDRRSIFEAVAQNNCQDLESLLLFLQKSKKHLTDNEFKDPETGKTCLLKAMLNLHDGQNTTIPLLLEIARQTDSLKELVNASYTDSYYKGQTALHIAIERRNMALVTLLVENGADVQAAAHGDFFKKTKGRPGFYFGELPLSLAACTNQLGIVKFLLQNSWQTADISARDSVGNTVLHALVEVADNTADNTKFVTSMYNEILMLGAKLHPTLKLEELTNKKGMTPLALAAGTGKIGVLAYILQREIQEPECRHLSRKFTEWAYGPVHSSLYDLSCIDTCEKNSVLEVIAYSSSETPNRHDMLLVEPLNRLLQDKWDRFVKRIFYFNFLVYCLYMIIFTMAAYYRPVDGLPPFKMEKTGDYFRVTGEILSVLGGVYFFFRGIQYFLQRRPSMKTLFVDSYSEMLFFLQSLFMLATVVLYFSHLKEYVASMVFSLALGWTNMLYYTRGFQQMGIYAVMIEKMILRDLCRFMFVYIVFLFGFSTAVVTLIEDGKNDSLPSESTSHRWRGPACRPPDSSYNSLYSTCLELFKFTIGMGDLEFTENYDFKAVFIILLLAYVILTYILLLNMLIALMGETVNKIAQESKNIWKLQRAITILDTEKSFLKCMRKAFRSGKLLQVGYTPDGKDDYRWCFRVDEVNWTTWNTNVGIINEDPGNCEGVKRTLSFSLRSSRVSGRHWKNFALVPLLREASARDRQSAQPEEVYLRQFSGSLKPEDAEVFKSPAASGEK
Description: To determine whether TRPV1 was activated, the intracellular calcium ion (Ca^+2) levels from cells transfected with the TRPV1 receptor gene was measured. HEK-239 cells stably transfected with human TRPV1 were grown in 15 ml growth medium [high glucose DMEM (Dulbecco's Modification of Eagle's Medium) supplemented with 10% FBS (fetal bovine serum), 100 g/ml Penicillin/streptomycin, 100 g/ml G418] in a 75 Cm2 flask for 3 days at 33° C. in a mammalian cell culture incubator set at 5% CO2. Cells were detached with addition of 10 ml of PBS (phosphate buffered saline) by hand shaking gently. Cells were transferred to a 50 ml tube and centrifuged at 850 rpm for 3 minutes to remove PBS. After centrifugation, a pellet of cells formed in the bottom of the tube separating them from the supernatant solution. The supernatant was discarded and the cell pellet suspended in 1 ml of fresh growth medium to which 5 μl (12.5 g) of Fluo-4 AM (Molecular Probes, Inc., Eugene, Oreg.) calcium indicator was added and incubated for 30 minutes with gentle shaking.
The pelleted cells were re-suspended in 10 ml assay buffer and 90 μl aliquots (˜50,000 cells) per well delivered to a 96-well assay plate containing 10 μl of test compounds (1 mM in assay buffer, final concentration 100 μM) or buffer control and incubated at room temperature for 30 minutes. After 30 minutes, the plate was placed into a fluorometric imaging plate reader (FLIPR384 from Molecular Devices) and basal fluorescence recorded (excitation wave length 488 nm and emission wave length 510 nm). Then 20 μl of the compound being tested as a TRPV1 receptor activator was added and fluorescence recorded. […] It may be no difference (no effect), or negative (means antagonist or desensitizer) or positive (enhancer, also known as positive allosteric modulator). […] To determine if a compound was an antagonist or a desensitizer, the direct effect of a test compound was determined. For determining the direct effect of test compounds on TRPV1, 100 μl aliquots (˜50,000 cells) of cells prepared as described above were delivered to a 96-well assay plate and basal fluorescence recorded as noted above. Then 20 μl of the compound being tested as a TRPV1 receptor activator was added and fluorescence recorded. If any increase in fluorescence over background was noted, then the compound was considered an agonist. The agonist activity was expressed relative to that observed with a benchmark agonist such as 350 nM Capsaicin for TRPV1.
100 μM of antagonist was tested against 1 mM of L-Menthol to determine the level of reduced TRPV1 receptor activation by L-Menthol. Each antagonist compound was run with 1 mM of L-Menthol as a control and the antagonist activity of each compound was determined by comparing the Ca^2+ levels of the control with the antagonist compound being tested.

human TRPV1 [5] = target: T2, human TRPV1; assay: FLIPR Ca2+ assay, reduction of hydrogen peroxide activation of TRPV1; format: cell-based; parameters: expressed in transfected cells; conditions: for Ca++ counts: with compound; for inhibition at 400 µM / % Reduction of Hydrogen Peroxide TRPV1 Activation: antagonist 400 μM against 500 μM hydrogen peroxide; for inhibition at 100 µM: antagonist 100 μM against 500 μM hydrogen peroxide
Description: (§2) Cells were detached with addition of 10 ml of PBS (phosphate buffered saline) by hand shaking gently. Cells were transferred to a 50 ml tube and centrifuged at 850 rpm for 3 minutes to remove PBS.
The pelleted cells were re-suspended in 10 ml assay buffer and 90 μl aliquots (˜50,000 cells) per well delivered to a 96-well assay plate containing 10 μl of test compounds (1 mM in assay buffer, […]) or buffer control and incubated at room temperature for 30 minutes.

human TRPV1 [6] = target: T2, human TRPV1; assay: FLIPR Ca2+ assay, reduction of capsaicin activation of TRPV1; format: cell-based; parameters: expressed in transfected cells; conditions: for Ca++ counts: with compound
Description: as §2, §1

[7] = 100 μM antagonist vs 1 mM L-Menthol
[8] = antagonist 100 μM against 1 mM L-Menthol
[9] = 100 μM antagonist vs 500 μM hydrogen peroxide
[10] = compound 100 μM against 200 μM hydrogen peroxide, Sets 1-4

| Compound | Block of AITC activation of TRPA1 (human TRPA1 [2]; 100 μM antagonist) | Block of L-Menthol activation of TRPA1 (human TRPA1 [3]; [7]) | Average Ca2+ Counts (human TRPV1 [4]; [8]) | inhibition at 100 µM (human TRPV1 [4]) | Block of hydrogen peroxide activation of TRPA1 (human TRPA1 [1]; [9]) | Average Ca++ Counts (human TRPA1 [1]; [10]) | Ca++ counts (human TRPV1 [5]; Dose 4000, 500 uM H2O2) | Ca++ counts (human TRPV1 [6]; Dose 4000, 350 nM Capsaicin) | other results |
| --- | --- | --- | --- | --- | --- | --- | --- | --- | --- |
| CCCCOC(=O)c1ccc(O)cc1 [butyl 4-hydroxybenzoate] | Block menthol, H2O2, and AITC on TRPA1 | Block menthol, H2O2, and AITC on TRPA1 | 319.0 Counts | 77.2% | – | – | – | – | Average Ca++ Counts (human TRPA1 [1]): 411.0 Counts; Block of hydrogen peroxide activation of TRPA1 (human TRPA1 [1]): Block menthol, H2O2, and AITC on TRPA1; inhibition at 100 µM (human TRPA1 [1]): 96.1% |
| c1ccc(SSc2ccccc2)cc1 [diphenyl disulfide] | Block menthol, H2O2, and AITC on TRPA1 | Block menthol, H2O2, and AITC on TRPA1 | 1630.5 Counts | 64.9% | – | – | – | – | Average Ca++ Counts (human TRPA1 [1]): 1112.0 Counts; Block of hydrogen peroxide activation of TRPA1 (human TRPA1 [1]): Block menthol, H2O2, and AITC on TRPA1; inhibition at 100 µM (human TRPA1 [1]): 81.1% |
| O=C(CCl)c1ccccc1 [2-chloroacetophenone] | Block menthol, H2O2, and AITC on TRPA1 | Block menthol, H2O2, and AITC on TRPA1 | 1313.0 Counts | 31.2% | Block menthol, H2O2, and AITC on TRPA1 | 1199.5 Counts | – | – | inhibition at 100 µM (human TRPA1 [1]): 88.7% |
| CC1=CC(=O)C(C(C)C)CC1 [L-Piperiton] | – | – | – | – | – | – | – | – | % inhibition of TRPV1 activation by 500 uM H2O2 (human TRPV1 [5]; Dose 1000): 58%; Ca++ counts (human TRPV1 [5]; Dose 1000, 500 uM H2O2): 361; % inhibition of TRPV1 activation by 350 nM Capsaicin (human TRPV1 [6]; Dose 1000): 12%; Ca++ counts (human TRPV1 [6]; Dose 1000, 350 nM Capsaicin): 13225 |
| CC(S)C(C)S (stereo not shown) [2,3-butanedithiol] | Block menthol, H2O2, and AITC on TRPA1 | Block menthol, H2O2, and AITC on TRPA1 | 586.0 Counts | 64.8% | Block menthol, H2O2, and AITC on TRPA1 | 1280.5 Counts | – | – | inhibition at 100 µM (human TRPA1 [1]; [10]): 87.9% |
| CC1(O)CSC(C)(O)CS1 (stereo not shown) [2,5-dimethyl-1,4-dithiane-2,5-diol] | Block menthol, H2O2, and AITC on TRPA1 | Block menthol, H2O2, and AITC on TRPA1 | 713.7 Counts | 58.9% | Block menthol, H2O2, and AITC on TRPA1 | 2420.0 Counts | – | – | inhibition at 100 µM (human TRPA1 [1]; [10]): 77.2% |
| CCC(C)COC(=O)CC(C)C (stereo not shown) [2-Methylbutyl isovalerate] | – | – | – | – | – | – | 380 | 11278 | inhibition at 400 µM (human TRPV1 [5]): 79% |
| CCCCCC=CCC1CCCC1=O (stereo not shown) [Octenyl Cyclopentanone] | – | – | – | – | – | – | 922 | 9378 | % inhibition of TRPV1 activation by 500 uM H2O2 (human TRPV1 [5]; Dose 4000): 50%; % Reduction of Hydrogen Peroxide TRPV1 Activation (human TRPV1 [5]): 50%; % inhibition of TRPV1 activation by 350 nM Capsaicin (human TRPV1 [6]; Dose 4000): 1% |
| CCCCCC(CC)OC(C)=O (stereo not shown) [3-Octyl Acetate] | – | – | – | – | – | – | 181 | 12109 | inhibition at 400 µM (human TRPV1 [5]): 90% |
| CCCCCCCCCCCCCCCCCC(=O)OCC(O)CO (racemic) [1-stearoyl-rac-glycerol] | Block menthol, H2O2, and AITC on TRPA1 | Block menthol, H2O2, and AITC on TRPA1 | 4708.0 Counts | 26.4% | Block menthol, H2O2, and AITC on TRPA1 | 3131.0 Counts | – | – | inhibition at 100 µM (human TRPA1 [1]; [10]): 55.5% |
| CC/C=C/CC1CCCC1=O (stereo not shown) [Jasminone B] | – | – | – | – | – | – | 903 | 11635 | % inhibition of TRPV1 activation by 500 uM H2O2 (human TRPV1 [5]; Dose 4000): 51%; % Reduction of Hydrogen Peroxide TRPV1 Activation (human TRPV1 [5]): 51%; % inhibition of TRPV1 activation by 350 nM Capsaicin (human TRPV1 [6]; Dose 4000): 2% |
| CCCN(CCC)CCC [Tripropylamine] | – | – | – | – | – | – | 715 | 11278 | inhibition at 400 µM (human TRPV1 [5]): 63% |
| CC(C)=CC1CC(C)CCO1 (stereo not shown) [Tetrahydro-4-methyl-2-(2-methyl-1-propenyl)-2H pyran] | – | – | – | – | – | – | 866 | 11041 | inhibition at 400 µM (human TRPV1 [5]): 53% |
| CC1SCCS1 [2-methyl-1,3-dithiolane] | Block menthol, H2O2, and AITC on TRPA1 | Block menthol, H2O2, and AITC on TRPA1 | 2650.5 Counts | 34.3% | Block menthol, H2O2, and AITC on TRPA1 | 2402.0 Counts | – | – | inhibition at 100 µM (human TRPA1 [1]; [10]): 72.5% |
| CCCCCCCCCC(C)=O [2-undecanone] | Block menthol, H2O2, and AITC on TRPA1 | Block menthol, H2O2, and AITC on TRPA1 | 1282.3 Counts | 32.6% | – | – | – | – | Average Ca++ Counts (human TRPA1 [1]): 4581.0 Counts; Block of hydrogen peroxide activation of TRPA1 (human TRPA1 [1]): Block menthol, H2O2, and AITC on TRPA1; inhibition at 100 µM (human TRPA1 [1]): 56.8% |
| O=CCc1ccccc1 [phenylacetaldehyde] | Block menthol, H2O2, and AITC on TRPA1 | Block menthol, H2O2, and AITC on TRPA1 | 919.3 Counts | 49.4% | Block menthol, H2O2, and AITC on TRPA1 | 2578.5 Counts | – | – | inhibition at 100 µM (human TRPA1 [1]; [10]): 75.7% |
| manganese chloride | – | – | 3922.0 Counts | – | Block menthol, H2O2, and AITC on TRPA1 | 2872.5 Counts | – | – | % Reduction of Hydrogen Peroxide TRPA1 Activation (human TRPA1 [1]; [10]): 59.2%; Block of AITC activation of TRPA1 (human TRPA1 [2]): Block menthol, H2O2, and AITC on TRPA1; Block of L-Menthol activation of TRPA1 (human TRPA1 [3]): Block menthol, H2O2, and AITC on TRPA1; % Reduction of L-Menthol TRPV1 Activation (human TRPV1 [4]; [8]): 38.7% |
| CCCCOC(=O)C(C)C [Butyl Isobutyrate] | – | – | – | – | – | – | 774 | 11278 | inhibition at 400 µM (human TRPV1 [5]): 58% |
| O=C(CCc1ccc(O)cc1)c1c(O)cc(O)cc1O [phloretin] | Block menthol, H2O2, and AITC on TRPA1 | Block menthol, H2O2, and AITC on TRPA1 | 4616.5 Counts | 27.9% | Block menthol, H2O2, and AITC on TRPA1 | 215.0 Counts | – | – | inhibition at 100 µM (human TRPA1 [1]; [10]): 96.9% |
| COC(=O)c1ccccc1N(C)C [Methyl N,N-Dimethylanthranilate] | – | – | – | – | – | – | – | – | inhibition at 100 µM (human TRPV1 [5]): 60%; Ca++ counts (human TRPV1 [5]; Dose 1000, 500 uM H2O2): 451; Ca++ counts (human TRPV1 [6]; Dose 1000, 350 nM Capsaicin): 15329 |
| CCOc1nccnc1CC [2-Ethoxy-3-ethylpyrazine] | – | – | – | – | – | – | – | – | inhibition at 100 µM (human TRPV1 [5]): 58%; Ca++ counts (human TRPV1 [5]; Dose 1000, 500 uM H2O2): 474; Ca++ counts (human TRPV1 [6]; Dose 1000, 350 nM Capsaicin): 14878 |
